Source: patent US20230333109A1, “COMPOSITION FOR DIAGNOSING INFECTIOUS DISEASES COMPRISING AGENT FOR MEASURING EXPRESSION LEVEL OF SREBP2” (KOREA RESEARCH INSTITUTE OF BIOSCIENCE AND BIOTECHNOLOGY, priority 2020, published 2023)

System: HUVECs
Assay: Vascular barrier destruction in HUVECs under LPS stimulation (FIG. 4G)
Type: cell-based

## CCN(CC)Cc1ccc(C(=O)N(CCc2ccccc2OC)[C@@H]2CCNC2)cc1 [PF-429242]
  vascular barrier destruction: inhibited vascular bather destruction
